In US20040167131A1, “Inhibitors of factor Xa and other serine proteases involved in the coagulation cascade” (Pfizer Inc., priority 2002, published 2004):
pIC50: −log10 of the molar value.

target: T1, human factor Xa (Homo sapiens, UniProt P00742); test: Determination of Factor Xa IC50 (cleavage of fluorogenic substrate F-S2765); type: biochemical; settings: 3 pM human factor Xa; read-out: FXa 3 pM IC50
T1 construct: purchased Enzyme Research Laboratories
Procedure: The ability of compounds to act as inhibitors of human factor Xa catalytic activity was assessed by determination of that concentration of test substance that inhibited by 50% (IC50) the ability of human factor Xa to cleave the fluorogenic substrate F-S2765 (N-α-Z-D-Arg-Gly-Arg-pNA HCl, California Peptide Research). […] The IC50 was determined at 3 pM and/or 30 pM concentrations of human factor Xa (Enzyme Research Laboratories). These concentrations were achieved by diluting a stock solution of human factor Xa in the appropriate amount of buffer containing 10 mM HEPES, 150 mM NaCl, and 0.1% BSA at pH 7.4 (HBSA buffer). Accordingly, 73 μL of the factor Xa/buffer solution was added to 2.5 μL of DMSO-reconstituted compound and incubated for 55 minutes at room temperature. After warming to 37° C. for am additional 5 minutes, 50 μL of rewarmed substrate was added and the IC50 determined by monitoring the increase in absorbance at 390 nm excitation/460 nm emission (455 nm cutoff) in a fluorometric plate reader or 30 minutes.

T1 sequence (P00742 235-488 limits assumed): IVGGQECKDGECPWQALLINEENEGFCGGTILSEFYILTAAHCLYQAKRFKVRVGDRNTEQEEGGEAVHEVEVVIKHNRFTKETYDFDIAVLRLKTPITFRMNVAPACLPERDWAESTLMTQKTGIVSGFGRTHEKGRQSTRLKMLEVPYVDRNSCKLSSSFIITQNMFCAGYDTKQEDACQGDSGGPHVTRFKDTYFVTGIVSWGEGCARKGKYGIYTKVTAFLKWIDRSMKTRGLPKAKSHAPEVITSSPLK
T1 sequence (P00742 41-179 partner limits assumed): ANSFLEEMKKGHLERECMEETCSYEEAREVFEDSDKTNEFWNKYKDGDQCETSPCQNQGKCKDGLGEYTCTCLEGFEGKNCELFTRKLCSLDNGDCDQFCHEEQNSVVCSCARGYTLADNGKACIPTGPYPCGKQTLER

pIC50	Compound
7.66	CS(=O)(=O)c1ccccc1-c1ccc(NC(=O)C2(NC(=O)Nc3ccc(Cl)cc3)CC2)c(F)c1 [Example 3, 1-[3-(4-Chloro-phenyl)-ureido]-cyclopropanecarboxylic acid (3-fluoro-2′-methanesulfonyl-biphenyl-4-yl)-amide]
7.48	CS(=O)(=O)c1ccccc1-c1ccc(NC(=O)C2(NC(=O)Nc3ccc(Cl)cc3)CC2)cc1 [Example 2, 1-[3-(4-Chloro-phenyl)-ureido]-cyclopropanecarboxylic acid (2′-methanesulfonyl-biphenyl-4-yl)-amide]
7.70	CC(C)(NC(=O)Nc1ccc(Cl)cc1)C(=O)Nc1ccc(-c2ccccc2S(C)(=O)=O)cc1F [Example 7, 2-[3-(4-Chloro-phenyl)-ureido]-N-(3-fluoro-2′-methanesulfonyl-biphenyl-4-yl)-2-methyl-propionamide]

same assay, conditions: 30 pM human factor Xa; compound @ 1 μM

FxXa 30 pM, % @ 1 μM	Compound
30% @ 1 μM	CS(=O)(=O)c1ccccc1-c1ccc(NC(=O)CN(Cc2ccccc2)C(=O)Nc2ccc(Cl)cc2)c(F)c1 [Example 27, 2-[1-Benzyl-3-(4-chloro-phenyl)-ureido]-N-(3-fluoro-2′-methanesulfonyl-biphenyl-4-yl)-acetamide]
18% @ 1 μM	CN(CC(=O)Nc1ccc(-c2ccccc2S(C)(=O)=O)cc1F)C(=O)N(C)c1ccc(Cl)cc1 [Example 14, 2-[3-(4-Chloro-phenyl)-1,3-dimethyl-ureido]-N-(3-fluoro-2′-methanesulfonyl-biphenyl-4-yl)-acetamide]
13.7% @ 1 μM	CN(C)CCN(CC(=O)Nc1ccc(-c2ccccc2S(C)(=O)=O)cc1F)C(=O)Nc1ccc(Cl)cc1 [Example 26, 2-[3-(4-Chloro-phenyl)-1-(2-dimethylamino-ethyl)-ureido]-N-(3-fluoro-2′-methanesulfonyl-biphenyl-4-yl)-acetamide]
17% @ 1 μM	CN(C(=O)NCC(=O)Nc1ccc(-c2ccccc2S(C)(=O)=O)cc1F)c1ccc(Cl)cc1 [Example 13, 2-[3-(4-Chloro-phenyl)-3-methyl-ureido]-N-(3-fluoro-2′-methanesulfonyl-biphenyl-4-yl)-acetamide]

same assay, conditions: 30 pM human factor Xa; read-out: FxXa 30 pM IC50

Compound	pIC50
NS(=O)(=O)c1ccccc1-c1ccc(NC(=O)C2(NC(=O)Nc3ccc(Cl)cc3)CC2)c(F)c1 [Example 5, 1-[3-(4-Chloro-phenyl)-ureido]-cyclopropanecarboxylic acid (3-fluoro-2′-sulfamoyl-biphenyl-4-yl)-amide]	7.44
CC(C)(NC(=O)Nc1ccc(Cl)cc1)C(=O)Nc1ccc(-c2ccccc2S(N)(=O)=O)cc1F [Example 9]	7.36
CN(CC(=O)Nc1ccc(-c2ccccc2S(C)(=O)=O)cc1F)C(=O)Nc1ccc(Cl)cc1 [Example 12, 2-[3-(4-Chloro-phenyl)-1-methyl-ureido]-N-(3-fluoro-2′-methanesulfonyl-biphenyl-4-yl)-acetamide]	7.70
NS(=O)(=O)c1ccccc1-c1ccc(NC(=O)C2(NC(=O)Nc3ccc(Cl)cc3)CC=CC2)c(F)c1 [Example 11, 1-[3-(4-Chloro-phenyl)-ureido]-cyclopent-3-enecarboxylic acid (3-fluoro-2′-sulfamoyl-biphenyl-4-yl)-amide]	7.18
CC(C)(NC(=O)Nc1ccc(Cl)cn1)C(=O)Nc1ccc(-c2ccccc2S(C)(=O)=O)cc1F [Example 8, 2-[3-(5-Chloro-pyridin-2-yl)-ureido]-N-(3-fluoro-2′-methanesulfonyl-biphenyl-4-yl)-2-methyl-propionamide]	6.54
NS(=O)(=O)c1ccccc1-c1ccc(NC(=O)C2(NC(=O)Nc3ccc(Cl)cn3)CC2)c(F)c1 [Example 6, 1-[3-(5-Chloro-pyridin-2-yl)-ureido]-cyclopropanecarboxylic acid (3-fluoro-2′-sulfamoyl-biphenyl-4-yl)-amide]	6.72

The next lines start with the values.

pIC50	Compound
7.46	CS(=O)(=O)c1ccccc1-c1ccc(NC(=O)[C@@]2(NC(=O)Nc3ccc(Cl)cc3)C[C@@H]2CO)c(F)c1 [Example 20, (1R,2S)-1-[3-(4-Chloro-phenyl)-ureido]-2-hydroxymethyl-cyclopropanecarboxylic acid (3-fluoro-2′-methanesulfonyl-biphenyl-4-yl)-amide]
6.65	COCCN(CC(=O)Nc1ccc(N2CCCCC2=O)cc1F)C(=O)Nc1ccc(Cl)cc1 [Example 29, 2-[3-(4-Chloro-phenyl)-1-(2-methoxy-ethyl)-ureido]-N-[2-fluoro-4-(2-oxo-piperidin-1-yl)-phenyl]-acetamide]
6.60	NS(=O)(=O)c1ccccc1-c1ccc(NC(=O)C2(NC(=O)Nc3ccc(Cl)cc3)CCOCC2)c(F)c1 [Example 16, 4-[3-(4-Chloro-phenyl)-ureido]-tetrahydro-pyran-4-carboxylic acid (3-fluoro-2′-sulfamoyl-biphenyl-4-yl)-amide]
6.76	CS(=O)(=O)c1ccccc1-c1ccc(NC(=O)C2(NC(=O)Nc3ccc(Cl)cc3)CCN(C(=O)OCc3ccccc3)C2)c(F)c1 (stereo not drawn) [Example 22, 3-[3-(4-Chloro-phenyl)-ureido]-3-(3-fluoro-2′-methanesulfonyl-biphenyl-4-ylcarbamoyl)-pyrrolidine-1-carboxylic acid benzyl ester]
6.89	O=C(Nc1ccc(Cl)cc1)N[C@@]1(C(=O)Nc2ccc(N3CCCCC3=O)cc2F)C[C@@H]1CO [Example 19, (1S,2S)-1-[3-(4-Chloro-phenyl)-ureido]-2-hydroxymethyl-cyclopropanecarboxylic acid [2-fluoro-4-(2-oxo-piperidin-1-yl)-phenyl]-amide]
7.59	COCCN(CC(=O)Nc1ccc(-c2ccccc2S(C)(=O)=O)cc1F)C(=O)Nc1ccc(Cl)cc1 [Example 24, 2-[3-(4-Chloro-phenyl)-1-(2-methoxy-ethyl)-ureido]-N-(3-fluoro-2′-methanesulfonyl-biphenyl-4-yl)-acetamide]
7.54	NS(=O)(=O)c1ccccc1-c1ccc(NC(=O)C(CO)(CO)NC(=O)Nc2ccc(Cl)cc2)cc1 [Example 15, 2-[3-(4-Chloro-phenyl)-ureido]-3-hydroxy-2-hydroxymethyl-N-(2′-sulfamoyl-biphenyl-4-yl)-propionamide]
7.68	CS(=O)(=O)c1ccccc1-c1ccc(NC(=O)[C@]2(NC(=O)Nc3ccc(Cl)cc3)C[C@@H]2CO)c(F)c1 [Example 18, (1S,2S)-1-[3-(4-Chloro-phenyl)-ureido]-2-hydroxymethyl-cyclopropanecarboxylic acid (3-fluoro-2′-methanesulfonyl-biphenyl-4-yl)-amide]
7.19	NS(=O)(=O)c1ccccc1-c1ccc(NC(=O)C2(NC(=O)Nc3ccc(Cl)cc3)CCSCC2)c(F)c1 [Example 17, 4-[3-(4-Chloro-phenyl)-ureido]-tetrahydro-thiopyran-4-carboxylic acid (3-fluoro-2′-sulfamoyl-biphenyl-4-yl)-amide]
6.98	CC(C)CN(CC(=O)Nc1ccc(-c2ccccc2S(C)(=O)=O)cc1F)C(=O)Nc1ccc(Cl)cc1 [Example 25, 2-[3-(4-Chloro-phenyl)-1-isobutyl-ureido]-N-(3-fluoro-2′-methanesulfonyl-biphenyl-4-yl)-acetamide]
6.85	O=C(Nc1ccc(Cl)cc1)N[C@]1(C(=O)Nc2ccc(N3CCCCC3=O)cc2F)C[C@@H]1CO [Example 21, (1R,2S)-1-[3-(4-Chloro-phenyl)-ureido]-2-hydroxymethyl-cyclopropanecarboxylic acid [2-fluoro-4-(2-oxo-piperidin-1-yl)-phenyl]-amide]
